Data as given in PubChem BioAssay (NCI).
Values joined by “and” are separate entries in the source; they are usually repeats but may differ in a detail not shown here. Equal values may be shown once.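 Dose response: 5 concentrations. Exposure: 48 h. Format: 96-well plates. Endpoint: linear interpolation; highest concentration if not reached. GI50 marks 50% less growth. Definition used: TGI = concentration required for complete inhibition of growth.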

Experiments:
Assay in all cases: NCI anticancer screen, dose series, 48 h
M19-MEL melanoma = system: M19-MEL melanoma
SNB-78 CNS = system: SNB-78 CNS
UACC-257 melanoma = system: UACC-257 melanoma
IGROV1 ovarian = system: IGROV1 ovarian
SK-MEL-28 melanoma = system: SK-MEL-28 melanoma
COLO 205 colon = system: COLO 205 colon
SK-MEL-5 melanoma = system: SK-MEL-5 melanoma
DMS 114 small cell lung = system: DMS 114 small cell lung
KM12 colon = system: KM12 colon
A549 NSCLC = system: A549 NSCLC
DLD-1 colon = system: DLD-1 colon

Structure (SMILES)	GI50 (M19-MEL melanoma)	TGI (M19-MEL melanoma)	GI50 (SNB-78 CNS)	TGI (SNB-78 CNS)	GI50 (UACC-257 melanoma)	TGI (UACC-257 melanoma)	GI50 (IGROV1 ovarian)	TGI (IGROV1 ovarian)	TGI (SK-MEL-28 melanoma)	TGI (COLO 205 colon)	GI50 (SK-MEL-5 melanoma)	TGI (SK-MEL-5 melanoma)	GI50 (DMS 114 small cell lung)	TGI (DMS 114 small cell lung)	TGI (KM12 colon)	GI50 (A549 NSCLC)	TGI (A549 NSCLC)	GI50 (DLD-1 colon)	TGI (DLD-1 colon)
COc1cc([C@@H]2c3cc4c(c(O)c3C[C@H]3COC(=O)[C@@H]32)OCO4)cc(OC)c1O	4.61 nM	> 200000 nM	3.09 nM	> 200000 nM	5 nM	> 20000 nM	2.76 nM	> 128000 nM	> 200000 nM	174 nM	2.21 nM	6.24 nM and < 20 nM	2.31 nM	5.46 nM	> 200000 nM	3.85 nM	> 200000 nM	4.21 nM and 20 nM	> 200000 nM
CN1OC2OC(=O)OC2[C@H]1[C@H]1O[C@H](c2ccccc2)OC1(C)c1cc(OC(=O)c2ccccc2)ccc1OC(=O)c1ccccc1 (stereo not given in full)		> 50000 nM		> 50000 nM		> 50000 nM		> 50000 nM	> 50000 nM	> 50000 nM		> 50000 nM		> 50000 nM	> 50000 nM		> 50000 nM		> 50000 nM
